Data reported in article PMC10905675, “INX-315, a Selective CDK2 Inhibitor, Induces Cell Cycle Arrest and Senescence in Solid Tumors” (Cancer Discovery, 2023).

Key:
Test in all cases: SelectScreen ZLYTE
Format in all cases: biochemical
Details in all cases: INX-0315 at 100nM
[1] = target: T1, AMPK (A1/B2/G3) (Homo sapiens, UniProt Q13131)
T1 construct: purchased Thermo Fisher Scientific SelectScreen (plus Nanosyn / Reaction Biology for CDK/cyclin lines)
Summary of the method: (§1)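 Preset conditions throughout. Primary: 100 nmol/L INX-315, 1% DMSO. Secondary: ten doses, top 1 µmol/L, bottom 0.0495 nmol/L.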

[2] = target: T2, FGFR2 N549H (Homo sapiens, UniProt P21802, N549H)
T2 construct: purchased Thermo Fisher Scientific SelectScreen (plus Nanosyn / Reaction Biology for CDK/cyclin lines)
Summary of the method: as §1

[3] = target: T3, TYK2 (Homo sapiens, UniProt P29597)
T3 construct: purchased Thermo Fisher Scientific SelectScreen (plus Nanosyn / Reaction Biology for CDK/cyclin lines)
Summary of the method: as §1

[4] = target: T4, CSNK1G3 (CK1 gamma 3) (Homo sapiens, UniProt Q9Y6M4)
T4 construct: purchased Thermo Fisher Scientific SelectScreen (plus Nanosyn / Reaction Biology for CDK/cyclin lines)
Summary of the method: as §1

[5] = target: T5, SGK (SGK1) (Homo sapiens, UniProt O00141)
T5 construct: purchased Thermo Fisher Scientific SelectScreen (plus Nanosyn / Reaction Biology for CDK/cyclin lines)
Summary of the method: as §1

[6] = target: T6, CSF1R (FMS) (Homo sapiens, UniProt P07333)
T6 construct: purchased Thermo Fisher Scientific SelectScreen (plus Nanosyn / Reaction Biology for CDK/cyclin lines)
Summary of the method: as §1

[7] = target: T7, EPHA5 (Homo sapiens, UniProt P54756)
T7 construct: purchased Thermo Fisher Scientific SelectScreen (plus Nanosyn / Reaction Biology for CDK/cyclin lines)
Summary of the method: as §1

[8] = target: T8, EPHB2 (Homo sapiens, UniProt P29323)
T8 construct: purchased Thermo Fisher Scientific SelectScreen (plus Nanosyn / Reaction Biology for CDK/cyclin lines)
Summary of the method: as §1

[9] = target: T9, IKBKE (IKK epsilon) (Homo sapiens, UniProt Q14164)
T9 construct: purchased Thermo Fisher Scientific SelectScreen (plus Nanosyn / Reaction Biology for CDK/cyclin lines)
Summary of the method: as §1

[10] = target: T10, PRKCE (PKC epsilon) (Homo sapiens, UniProt Q02156)
T10 construct: purchased Thermo Fisher Scientific SelectScreen (plus Nanosyn / Reaction Biology for CDK/cyclin lines)
Summary of the method: as §1

[11] = target: T11, IKBKB (IKK beta) (Homo sapiens, UniProt O14920)
T11 construct: purchased Thermo Fisher Scientific SelectScreen (plus Nanosyn / Reaction Biology for CDK/cyclin lines)
Summary of the method: as §1

[12] = target: T12, MUSK (Homo sapiens, UniProt O15146)
T12 construct: purchased Thermo Fisher Scientific SelectScreen (plus Nanosyn / Reaction Biology for CDK/cyclin lines)
Summary of the method: as §1

[13] = target: T13, PDGFRA V561D (Homo sapiens, UniProt P16234, V561D)
T13 construct: purchased Thermo Fisher Scientific SelectScreen (plus Nanosyn / Reaction Biology for CDK/cyclin lines)
Summary of the method: as §1

[14] = target: T14, DYRK1B (Homo sapiens, UniProt Q9Y463)
T14 construct: purchased Thermo Fisher Scientific SelectScreen (plus Nanosyn / Reaction Biology for CDK/cyclin lines)
Summary of the method: as §1

[15] = target: T15, PRKCH (PKC eta) (Homo sapiens, UniProt P24723)
T15 construct: purchased Thermo Fisher Scientific SelectScreen (plus Nanosyn / Reaction Biology for CDK/cyclin lines)
Summary of the method: as §1

[16] = target: T16, PRKD1 (PKC mu) (Homo sapiens, UniProt Q15139)
T16 construct: purchased Thermo Fisher Scientific SelectScreen (plus Nanosyn / Reaction Biology for CDK/cyclin lines)
Summary of the method: as §1

[17] = target: T17, PRKG1 (Homo sapiens, UniProt Q13976)
T17 construct: purchased Thermo Fisher Scientific SelectScreen (plus Nanosyn / Reaction Biology for CDK/cyclin lines)
Summary of the method: as §1

[18] = target: T18, FGFR3 K650E (Homo sapiens, UniProt P22607, K650E)
T18 construct: purchased Thermo Fisher Scientific SelectScreen (plus Nanosyn / Reaction Biology for CDK/cyclin lines)
Summary of the method: as §1

[19] = target: T19, TEK (TIE2) Y897S (Homo sapiens, UniProt Q02763, Y897S)
T19 construct: purchased Thermo Fisher Scientific SelectScreen (plus Nanosyn / Reaction Biology for CDK/cyclin lines)
Summary of the method: as §1

[20] = target: T20, EGFR (ErbB1) G719C (Homo sapiens, UniProt P00533, G719C)
T20 construct: purchased Thermo Fisher Scientific SelectScreen (plus Nanosyn / Reaction Biology for CDK/cyclin lines)
Summary of the method: as §1

[21] = target: T21, CSNK1G1 (CK1 gamma 1) (Homo sapiens, UniProt Q9HCP0)
T21 construct: purchased Thermo Fisher Scientific SelectScreen (plus Nanosyn / Reaction Biology for CDK/cyclin lines)
Summary of the method: as §1

[22] = target: T22, MERTK (cMER) (Homo sapiens, UniProt Q12866)
T22 construct: purchased Thermo Fisher Scientific SelectScreen (plus Nanosyn / Reaction Biology for CDK/cyclin lines)
Summary of the method: as §1

[23] = target: T23, PRKCB1 (PKC beta I) (Homo sapiens, UniProt P05771)
T23 construct: purchased Thermo Fisher Scientific SelectScreen (plus Nanosyn / Reaction Biology for CDK/cyclin lines)
Summary of the method: as §1

[24] = target: T24, MST4 (Homo sapiens, UniProt Q9P289)
T24 construct: purchased Thermo Fisher Scientific SelectScreen (plus Nanosyn / Reaction Biology for CDK/cyclin lines)
Summary of the method: as §1

[25] = target: T25, CDK1/cyclin B (Homo sapiens, UniProt P06493)
T25 construct: purchased Thermo Fisher Scientific SelectScreen (plus Nanosyn / Reaction Biology for CDK/cyclin lines)
Summary of the method: as §1

[26] = target: T26, NEK1 (Homo sapiens, UniProt Q96PY6)
T26 construct: purchased Thermo Fisher Scientific SelectScreen (plus Nanosyn / Reaction Biology for CDK/cyclin lines)
Summary of the method: as §1

[27] = target: T27, MELK (Homo sapiens, UniProt Q14680)
T27 construct: purchased Thermo Fisher Scientific SelectScreen (plus Nanosyn / Reaction Biology for CDK/cyclin lines)
Summary of the method: as §1

[28] = target: T28, PDGFRA (PDGFR alpha) (Homo sapiens, UniProt P16234)
T28 construct: purchased Thermo Fisher Scientific SelectScreen (plus Nanosyn / Reaction Biology for CDK/cyclin lines)
Summary of the method: as §1

[29] = target: T29, ABL1 E255K (Homo sapiens, UniProt P00519, E255K)
T29 construct: purchased Thermo Fisher Scientific SelectScreen (plus Nanosyn / Reaction Biology for CDK/cyclin lines)
Summary of the method: as §1

[30] = target: T30, KIT (Homo sapiens, UniProt P10721)
T30 construct: purchased Thermo Fisher Scientific SelectScreen (plus Nanosyn / Reaction Biology for CDK/cyclin lines)
Summary of the method: as §1

[31] = target: T31, SGK2 (Homo sapiens, UniProt Q9HBY8)
T31 construct: purchased Thermo Fisher Scientific SelectScreen (plus Nanosyn / Reaction Biology for CDK/cyclin lines)
Summary of the method: as §1

[32] = target: T32, CSNK2A1 (CK2 alpha 1) (Homo sapiens, UniProt P68400)
T32 construct: purchased Thermo Fisher Scientific SelectScreen (plus Nanosyn / Reaction Biology for CDK/cyclin lines)
Summary of the method: as §1

[33] = target: T33, GRK7 (Homo sapiens, UniProt Q8WTQ7)
T33 construct: purchased Thermo Fisher Scientific SelectScreen (plus Nanosyn / Reaction Biology for CDK/cyclin lines)
Summary of the method: as §1

[34] = target: T34, ERBB4 (HER4) (Homo sapiens, UniProt Q15303)
T34 construct: purchased Thermo Fisher Scientific SelectScreen (plus Nanosyn / Reaction Biology for CDK/cyclin lines)
Summary of the method: as §1

[35] = target: T35, PRKACA (PKA) (Homo sapiens, UniProt P17612)
T35 construct: purchased Thermo Fisher Scientific SelectScreen (plus Nanosyn / Reaction Biology for CDK/cyclin lines)
Summary of the method: as §1

[36] = target: T36, RPS6KB1 (p70S6K) (Homo sapiens, UniProt P23443)
T36 construct: purchased Thermo Fisher Scientific SelectScreen (plus Nanosyn / Reaction Biology for CDK/cyclin lines)
Summary of the method: as §1

[37] = target: T37, ROS1 (Homo sapiens, UniProt P08922)
T37 construct: purchased Thermo Fisher Scientific SelectScreen (plus Nanosyn / Reaction Biology for CDK/cyclin lines)
Summary of the method: as §1

T7 sequence (P54756 25-1037): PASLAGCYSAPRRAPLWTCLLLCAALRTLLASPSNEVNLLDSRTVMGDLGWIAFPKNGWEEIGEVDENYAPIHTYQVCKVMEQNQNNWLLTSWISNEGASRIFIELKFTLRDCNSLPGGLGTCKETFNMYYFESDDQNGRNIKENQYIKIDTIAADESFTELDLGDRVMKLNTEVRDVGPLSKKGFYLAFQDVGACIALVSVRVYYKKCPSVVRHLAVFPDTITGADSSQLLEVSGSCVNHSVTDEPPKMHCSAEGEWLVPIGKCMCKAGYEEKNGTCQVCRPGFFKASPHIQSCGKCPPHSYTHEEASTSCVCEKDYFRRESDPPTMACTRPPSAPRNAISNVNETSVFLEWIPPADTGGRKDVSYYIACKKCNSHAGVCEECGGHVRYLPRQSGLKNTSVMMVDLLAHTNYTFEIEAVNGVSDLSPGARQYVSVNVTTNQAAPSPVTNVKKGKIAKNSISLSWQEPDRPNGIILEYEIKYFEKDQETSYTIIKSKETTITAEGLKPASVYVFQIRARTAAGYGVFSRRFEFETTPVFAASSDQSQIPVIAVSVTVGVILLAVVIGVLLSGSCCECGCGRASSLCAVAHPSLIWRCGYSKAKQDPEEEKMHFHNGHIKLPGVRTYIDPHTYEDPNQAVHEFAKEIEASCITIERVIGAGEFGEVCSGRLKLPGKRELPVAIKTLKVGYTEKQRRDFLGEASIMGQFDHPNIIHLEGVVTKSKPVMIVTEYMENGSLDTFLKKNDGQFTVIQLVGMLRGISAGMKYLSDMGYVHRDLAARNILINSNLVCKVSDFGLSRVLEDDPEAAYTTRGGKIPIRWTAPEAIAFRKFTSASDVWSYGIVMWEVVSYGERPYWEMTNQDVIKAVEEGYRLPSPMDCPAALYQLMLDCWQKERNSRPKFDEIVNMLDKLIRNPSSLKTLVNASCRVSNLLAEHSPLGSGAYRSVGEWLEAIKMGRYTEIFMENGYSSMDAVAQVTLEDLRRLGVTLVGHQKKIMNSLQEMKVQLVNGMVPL
T31 sequence (Q9HBY8 whole entry): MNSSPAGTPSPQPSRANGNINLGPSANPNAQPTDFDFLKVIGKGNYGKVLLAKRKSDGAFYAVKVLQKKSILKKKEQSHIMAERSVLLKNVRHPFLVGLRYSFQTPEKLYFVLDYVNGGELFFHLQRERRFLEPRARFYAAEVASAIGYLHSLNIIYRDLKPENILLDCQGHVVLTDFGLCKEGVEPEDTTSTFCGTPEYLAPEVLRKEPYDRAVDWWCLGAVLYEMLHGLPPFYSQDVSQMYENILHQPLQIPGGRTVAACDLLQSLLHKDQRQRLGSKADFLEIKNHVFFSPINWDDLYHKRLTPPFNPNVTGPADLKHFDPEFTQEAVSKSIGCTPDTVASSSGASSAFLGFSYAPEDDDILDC
T15 sequence (P24723 whole entry): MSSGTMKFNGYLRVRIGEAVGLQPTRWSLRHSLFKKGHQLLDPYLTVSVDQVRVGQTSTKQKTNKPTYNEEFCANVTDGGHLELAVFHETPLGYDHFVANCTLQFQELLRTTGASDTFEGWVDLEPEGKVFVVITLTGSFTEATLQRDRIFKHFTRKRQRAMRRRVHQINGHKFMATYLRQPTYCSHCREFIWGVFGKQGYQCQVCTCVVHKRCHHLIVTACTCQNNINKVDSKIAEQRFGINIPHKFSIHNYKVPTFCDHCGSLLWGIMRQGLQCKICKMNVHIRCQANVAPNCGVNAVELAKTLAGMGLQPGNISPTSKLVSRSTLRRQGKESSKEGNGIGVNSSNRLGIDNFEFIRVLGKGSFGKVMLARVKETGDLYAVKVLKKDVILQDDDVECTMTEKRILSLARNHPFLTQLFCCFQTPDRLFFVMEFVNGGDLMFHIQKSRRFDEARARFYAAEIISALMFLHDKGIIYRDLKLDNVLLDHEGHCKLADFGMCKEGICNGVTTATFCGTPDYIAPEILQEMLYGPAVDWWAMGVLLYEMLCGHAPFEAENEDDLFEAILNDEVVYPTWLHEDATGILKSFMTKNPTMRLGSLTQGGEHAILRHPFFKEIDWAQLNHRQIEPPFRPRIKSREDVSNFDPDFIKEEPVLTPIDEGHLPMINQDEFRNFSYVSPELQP
T28 sequence (P16234 24-1089): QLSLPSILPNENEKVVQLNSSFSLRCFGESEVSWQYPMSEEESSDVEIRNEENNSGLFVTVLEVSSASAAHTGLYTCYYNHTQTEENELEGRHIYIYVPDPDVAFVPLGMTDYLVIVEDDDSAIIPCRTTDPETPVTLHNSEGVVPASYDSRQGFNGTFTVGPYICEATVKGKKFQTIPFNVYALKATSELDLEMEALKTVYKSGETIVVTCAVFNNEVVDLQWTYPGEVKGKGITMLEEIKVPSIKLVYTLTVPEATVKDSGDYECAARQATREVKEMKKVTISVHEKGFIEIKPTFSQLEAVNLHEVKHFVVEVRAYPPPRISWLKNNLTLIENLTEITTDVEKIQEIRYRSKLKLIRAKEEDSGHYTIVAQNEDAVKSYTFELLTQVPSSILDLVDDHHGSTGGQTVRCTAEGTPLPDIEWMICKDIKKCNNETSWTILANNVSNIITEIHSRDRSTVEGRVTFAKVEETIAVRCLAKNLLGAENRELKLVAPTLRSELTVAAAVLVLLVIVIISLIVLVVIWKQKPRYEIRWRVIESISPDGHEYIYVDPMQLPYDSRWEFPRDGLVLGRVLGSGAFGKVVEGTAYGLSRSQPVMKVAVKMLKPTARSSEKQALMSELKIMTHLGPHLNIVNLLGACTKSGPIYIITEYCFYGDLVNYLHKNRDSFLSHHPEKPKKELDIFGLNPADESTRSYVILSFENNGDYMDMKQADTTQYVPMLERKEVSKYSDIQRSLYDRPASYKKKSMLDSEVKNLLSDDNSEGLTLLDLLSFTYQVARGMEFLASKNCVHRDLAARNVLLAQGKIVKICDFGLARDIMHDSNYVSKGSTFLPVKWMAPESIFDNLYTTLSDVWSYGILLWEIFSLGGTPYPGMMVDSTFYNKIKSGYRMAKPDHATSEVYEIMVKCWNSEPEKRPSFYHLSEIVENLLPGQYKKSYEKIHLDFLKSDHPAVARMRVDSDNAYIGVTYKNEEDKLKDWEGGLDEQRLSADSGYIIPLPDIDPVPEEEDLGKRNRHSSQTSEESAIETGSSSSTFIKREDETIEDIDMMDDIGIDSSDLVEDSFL
T19 sequence (Q02763 23-1124 Y897S): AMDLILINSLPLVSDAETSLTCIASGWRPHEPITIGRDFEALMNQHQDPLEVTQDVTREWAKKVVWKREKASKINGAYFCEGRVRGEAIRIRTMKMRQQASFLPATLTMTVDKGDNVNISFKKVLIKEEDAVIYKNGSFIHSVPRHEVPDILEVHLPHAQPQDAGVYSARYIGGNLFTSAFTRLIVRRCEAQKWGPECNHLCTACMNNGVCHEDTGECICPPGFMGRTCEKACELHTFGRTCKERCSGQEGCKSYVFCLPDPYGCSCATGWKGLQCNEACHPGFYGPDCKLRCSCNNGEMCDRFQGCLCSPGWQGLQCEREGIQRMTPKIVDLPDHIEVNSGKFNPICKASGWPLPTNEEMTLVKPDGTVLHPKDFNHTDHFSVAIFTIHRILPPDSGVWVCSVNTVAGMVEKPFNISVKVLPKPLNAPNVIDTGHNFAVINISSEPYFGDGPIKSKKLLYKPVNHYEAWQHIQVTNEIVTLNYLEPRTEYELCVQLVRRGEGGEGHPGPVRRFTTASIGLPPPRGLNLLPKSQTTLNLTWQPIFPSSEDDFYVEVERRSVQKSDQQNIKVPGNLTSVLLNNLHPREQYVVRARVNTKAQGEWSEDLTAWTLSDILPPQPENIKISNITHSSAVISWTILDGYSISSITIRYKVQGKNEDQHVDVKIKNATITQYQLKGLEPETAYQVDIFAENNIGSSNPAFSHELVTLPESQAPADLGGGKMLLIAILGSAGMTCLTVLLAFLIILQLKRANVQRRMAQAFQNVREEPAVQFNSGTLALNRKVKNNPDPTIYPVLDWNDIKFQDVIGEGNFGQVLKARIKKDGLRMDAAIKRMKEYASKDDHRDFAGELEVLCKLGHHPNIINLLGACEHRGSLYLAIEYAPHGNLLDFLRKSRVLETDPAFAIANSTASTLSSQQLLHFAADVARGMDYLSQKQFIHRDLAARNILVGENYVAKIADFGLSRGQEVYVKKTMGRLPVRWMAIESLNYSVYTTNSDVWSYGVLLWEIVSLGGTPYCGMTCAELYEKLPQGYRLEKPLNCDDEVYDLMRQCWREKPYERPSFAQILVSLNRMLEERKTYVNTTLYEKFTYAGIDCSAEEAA
T23 sequence (P05771 whole entry): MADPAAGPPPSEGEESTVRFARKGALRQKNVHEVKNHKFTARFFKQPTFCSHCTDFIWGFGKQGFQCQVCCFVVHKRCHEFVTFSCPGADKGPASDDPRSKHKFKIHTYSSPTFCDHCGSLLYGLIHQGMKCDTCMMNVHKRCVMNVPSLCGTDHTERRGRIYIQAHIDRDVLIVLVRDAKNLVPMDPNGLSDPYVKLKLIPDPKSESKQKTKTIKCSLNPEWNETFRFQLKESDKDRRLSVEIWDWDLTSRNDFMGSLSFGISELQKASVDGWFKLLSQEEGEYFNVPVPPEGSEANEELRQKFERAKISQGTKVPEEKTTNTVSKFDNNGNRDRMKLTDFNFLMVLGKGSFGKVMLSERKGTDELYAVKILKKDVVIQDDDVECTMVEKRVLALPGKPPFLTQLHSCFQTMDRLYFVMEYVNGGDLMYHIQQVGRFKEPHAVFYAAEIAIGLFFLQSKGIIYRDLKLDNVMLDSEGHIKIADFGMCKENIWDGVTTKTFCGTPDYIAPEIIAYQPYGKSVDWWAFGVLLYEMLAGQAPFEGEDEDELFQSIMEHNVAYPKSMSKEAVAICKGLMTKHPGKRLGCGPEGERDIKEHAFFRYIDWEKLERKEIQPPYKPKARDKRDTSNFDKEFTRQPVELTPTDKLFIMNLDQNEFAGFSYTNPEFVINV
T13 sequence (P16234 24-1089 V561D): as the sequence (P16234 24-1089) above, with V538D counted along it

NS(=O)(=O)c1ccc(Nc2ncc3cc4n(c3n2)C2(CCCCC2)C(=O)NN4)cc1 [INX-315] was tested, and the inhibition at 0.1 µM [1] was 60%, the inhibition at 0.1 µM [2] was 16% and the inhibition at 0.1 µM [3] was 89%. It also gave an inhibition at 0.1 µM [4] of -1%, an inhibition at 0.1 µM [5] of 6% and an inhibition at 0.1 µM [6] of 95%. It also gave an inhibition at 0.1 µM [7] of 1%, an inhibition at 0.1 µM [8] of 20% and an inhibition at 0.1 µM [9] of 10%. For the same compound, the inhibition at 0.1 µM [10] was 3%, the inhibition at 0.1 µM [11] was 4% and the inhibition at 0.1 µM [12] was 8%. It also gave an inhibition at 0.1 µM [13] of 53%, an inhibition at 0.1 µM [14] of 1% and an inhibition at 0.1 µM [15] of 11%. It also gave an inhibition at 0.1 µM [16] of 9%, an inhibition at 0.1 µM [17] of 7% and an inhibition at 0.1 µM [18] of 31%. It also gave an inhibition at 0.1 µM [19] of 6%, an inhibition at 0.1 µM [20] of 0% and an inhibition at 0.1 µM [21] of 1%. It also gave an inhibition at 0.1 µM [22] of 20%, an inhibition at 0.1 µM [23] of 12% and an inhibition at 0.1 µM [24] of -4%. It also gave an inhibition at 0.1 µM [25] of 58%, an inhibition at 0.1 µM [26] of -10% and an inhibition at 0.1 µM [27] of 10%. For the same compound, the inhibition at 0.1 µM [28] was 21%, the inhibition at 0.1 µM [29] was 11% and the inhibition at 0.1 µM [30] was 9%. The inhibition at 0.1 µM [31] was 5%, the inhibition at 0.1 µM [32] was 6% and the inhibition at 0.1 µM [33] was 62%. For the same compound, the inhibition at 0.1 µM [34] was 2%, the inhibition at 0.1 µM [35] was 4% and the inhibition at 0.1 µM [36] was 1%. The inhibition at 0.1 µM [37] was 19%.
